US20160324885A1, “COMPOSITION CONTAINING MODIFIED DERIVATIVES OF A CYTIDINE ANTIMETABOLITE FOR THE TREATMENT OF SUSCEPTIBLE DISEASE” (ASTERIAPHARMA GMBH, priority 2013, published 2016)

Assays:
[1] = tested on: HeLa cells; assay: WST-1 cell proliferation assay, HeLa cells; format: cell-based, human; parameters: dose or concentration left out as unconfirmed; conditions: 5 days after start of treatment, WST-1, relative to untreated cells
Protocol: FIG. 1. Inhibition of proliferation of human cancer cells treated with either dFdC or homo-oligomers and hetero-oligomers containing dFdC. HeLa cells growing on 96-well plates (5000 cells/well) were treated with: 1) TpF; 2) FpF; 3) TpFpF; 4) FpFpF; 5) dFdC. The concentration of drug in the culture medium […]. Cell proliferation was measured 5 days after treatment was started using the WST-1 assay. The mean value obtained with untreated cells was set at 1.
Methods: Cervical cancer cell lines (HeLa, SiHa, CaSki and C-33) were cultured at 37° C./5% CO2 in medium containing DMEM with Glutamax™, 1 mM sodium pyruvate, penicillin/streptomycin (PS) and 10% fetal bovine serum (FBS) (Invitrogen/LifeTechnologies). […] The cells were incubated with WST-1 for 1 hour at 37° C./5% CO2, then the amount of formazan dye produced was quantified using a scanning spectrophotometer (ELISA plate reader). The absorbance was measured with a test wavelength at 450 nm and a reference wavelength at 630 nm. Then, the 630 nm background absorbance was subtracted from the 450 nm measurement. […]
2) The FpFpF trinucleotide was tested in comparison with dFdC for its ability to inhibit cell growth of tumor cells of different origin: pancreatic cancer (MIA PaCa-2, ASPC) cervical (HeLa, CaSki, C33A) and hepatic (Huh-7) cancers. […] At this time cell proliferation was quantified using the WST-1 assay as described above. […]

[2] = tested on: MIA PaCa-2 cells; assay: Proliferation of MIA PaCa-2 cells treated with drug pre-incubated with human serum; format: cell-based; conditions: MIA PaCa-2, serum pre-incubation 2 hours at 37° C., then 72 hours on cells
Protocol: (§1) Methods: The cells were seeded in 96-well plates one day before treatment at a density of 5000 cells/well in 100 μl/well of medium DMEM/Glutamax™/1 mM sodium pyruvate/PS/10%/FBS and cultured at 37° C./5% CO2. Separate serum dilutions of dFdC and FpFpF trinucleotide were prepared from 1 mM stock solutions to a final concentration of 20 μmol/L. The sera aliquots containing either drug were incubated at 37° C./5% CO2 for the indicated times before they were added to the cells to the indicated final concentrations. The cells were incubated for further 72 hours after which the cell proliferation was quantified using the WST-1 assay. Two controls were run in parallel: untreated cells and cells treated with dFdC or FpFpF trinucleotides that were not incubated with serum.

[3] = tested on: HeLa cells; assay: Proliferation of HeLa cells treated with drug pre-incubated with human serum; format: cell-based; conditions: serum pre-incubation 2 hours at 37° C., then 72 hours on cells
Protocol: as §1

[4] = tested on: Panc-1 cells; assay: Inhibition of proliferation of Panc-1 cells; format: cell-based; conditions: Homo sapiens, read-out: ID50 (the source's name)
Protocol: Methods: The FpFpF trinucleotide was coupled to lipid as described in the Example 3 for the Palmitoyl-trinucleotide (5′-FpFpF-3′-Pal). Panc-1 cells were plated one day before treatment at a density of 5000 cells/well in a 96-well plate with 100 μl/well of medium RPMI/Glutamax™/1 mM sodium pyruvate/PS/10% FBS and cultured at 37° C./5% CO2. Treatments (6 wells per condition) with wither dFdC, FpFpF and FpFpF-Pal were carried out at the indicated concentrations.

[5] = tested on: HeLa cells; assay: HeLa xenograft tumor growth delay in immunodeficient mice; format: in vivo; conditions: 10 mg/kg intraperitoneally every fourth day, four doses
Protocol: Objective: To compare the anti-tumor activities of FpFpF trinucleotide and dFdC in vivo in a xenograft model. HeLa cells and immunodeficient mice were used in this assay as described below.
Methods. Immunodeficient CAnN.Cg-Fox1^nu/Cr1 (BALB/c) mice (The Jackson Laboratories) are well suited for the xenotransplantation of human tumors. HeLa cells (5×10^6) were mixed 1:1 with matrigel in a final volume of 0.1 ml and then injected subcutaneously in the right flank of each mouse. Treatments were initiated at the time when the tumor volume reached approximately 200 mm^3. The drugs (FpFpF trinucleotide or dFdC) were administered intraperitoneally at 10 mg/kg every fourth day for a total of four doses. Tumor volumes were calculated with the ellipsoid volume formula (L×W×H×π/6) (Tomayko and Reynolds, 1989). Tumor volume values were transformed to a log scale. A two-way analysis of variance by time and treatment was used. The data are finally expressed as means and standard errors for each treatment group against time. A Weibull distribution was assumed to calculate mean times and standard errors for each treatment group. Tumor growth delay was defined as the difference in mean time between each treated group and the control group.

[6] = following intravenous administration; cited from earlier work
[7] = mice, normal tissues and subcutaneous sarcoma tissue; cited from earlier work
[8] = in vivo; cited from earlier work

Compound	inhibition of cell proliferation [1]	inhibition of proliferation after pre-incubation of drug with human serum [2]	inhibition of proliferation after pre-incubation of drug with human serum [3]	IC50 [4]	Tumor Growth Delay at 500 mm^3, Mean ± S.E.M. ([5]; tumor size 500 mm^3)	Tumor Growth Delay at 700 mm^3, Mean ± S.E.M. ([5]; tumor size 700 mm^3)	Tumor Growth Delay at 900 mm^3, Mean ± S.E.M. ([5]; tumor size 900 mm^3)	half-life in the human plasma [6]	time radiolabeled dFdC remains in tissues [7]	excreted unprocessed in the urine [8]
2′-deoxy-2′,2′-difluorocytidinyl 3′-5′ phosphate 2′-deoxy-2′,2′-difluorocytidine [FpF]	~56%									
thymidinyl 3′-5′ phosphate 2′-deoxy-2′,2′-difluorocytidine [TpF]	19%									
Nc1ccn([C@@H]2O[C@H](CO)[C@@H](O)C2(F)F)c(=O)n1 [dFdC, 2′.2′-difluoro 2′-deoxycytidine]		10%	5%	12.2 µM	2.8 ± 0.3 days	4.9 ± 0.6 days	7.7 ± 0.5 days	8 to 17 min	up to 3 hours	less than 10%
